Laboratory results published in US20090270381A1, “Non-steroidal progesterone receptor modulators” (priority 2007, published 2009).
Read-outs that look alike come from different tables or passages of the source.

Key:
PR-A = biological target: T1, PR-A (Homo sapiens, UniProt P06401); experiment: Transactivation test on antagonistic activity at PR-A; type: cell-based; conditions: for IC50: antagonism at PR-A; for Emax: read-out: Efficacy (antagonism at PR-A) [%]
T1 construct: expressed in transfected cells
T1 sequence (P06401 1-769 isoform P06401-2): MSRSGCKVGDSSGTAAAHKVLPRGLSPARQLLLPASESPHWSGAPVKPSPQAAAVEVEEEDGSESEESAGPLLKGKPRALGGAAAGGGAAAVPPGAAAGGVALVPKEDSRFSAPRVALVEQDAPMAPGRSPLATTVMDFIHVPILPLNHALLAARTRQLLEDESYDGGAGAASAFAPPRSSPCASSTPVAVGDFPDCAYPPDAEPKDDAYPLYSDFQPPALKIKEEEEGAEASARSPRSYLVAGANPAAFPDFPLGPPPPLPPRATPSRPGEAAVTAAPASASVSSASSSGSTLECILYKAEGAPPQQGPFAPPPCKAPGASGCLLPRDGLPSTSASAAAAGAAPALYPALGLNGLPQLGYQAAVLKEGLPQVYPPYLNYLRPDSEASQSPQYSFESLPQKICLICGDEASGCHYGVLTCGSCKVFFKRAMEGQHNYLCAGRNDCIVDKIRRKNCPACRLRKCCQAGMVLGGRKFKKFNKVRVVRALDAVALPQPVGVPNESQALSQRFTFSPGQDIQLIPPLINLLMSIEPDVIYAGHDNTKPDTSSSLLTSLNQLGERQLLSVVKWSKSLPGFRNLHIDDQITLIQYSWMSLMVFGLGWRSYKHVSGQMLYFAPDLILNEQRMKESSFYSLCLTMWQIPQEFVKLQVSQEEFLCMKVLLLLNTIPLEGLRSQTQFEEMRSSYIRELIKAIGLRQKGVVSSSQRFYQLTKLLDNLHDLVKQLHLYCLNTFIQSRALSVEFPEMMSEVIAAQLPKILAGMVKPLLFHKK
Procedure: (§1) The transactivation assay is carried out as described in WO 02/054064.

PR-B = biological target: T2, PR-B (Homo sapiens, UniProt P06401); experiment: Transactivation test on antagonistic activity on PR-B; type: cell-based
T2 construct: expressed in transfected cells
T2 sequence (P06401 1-933): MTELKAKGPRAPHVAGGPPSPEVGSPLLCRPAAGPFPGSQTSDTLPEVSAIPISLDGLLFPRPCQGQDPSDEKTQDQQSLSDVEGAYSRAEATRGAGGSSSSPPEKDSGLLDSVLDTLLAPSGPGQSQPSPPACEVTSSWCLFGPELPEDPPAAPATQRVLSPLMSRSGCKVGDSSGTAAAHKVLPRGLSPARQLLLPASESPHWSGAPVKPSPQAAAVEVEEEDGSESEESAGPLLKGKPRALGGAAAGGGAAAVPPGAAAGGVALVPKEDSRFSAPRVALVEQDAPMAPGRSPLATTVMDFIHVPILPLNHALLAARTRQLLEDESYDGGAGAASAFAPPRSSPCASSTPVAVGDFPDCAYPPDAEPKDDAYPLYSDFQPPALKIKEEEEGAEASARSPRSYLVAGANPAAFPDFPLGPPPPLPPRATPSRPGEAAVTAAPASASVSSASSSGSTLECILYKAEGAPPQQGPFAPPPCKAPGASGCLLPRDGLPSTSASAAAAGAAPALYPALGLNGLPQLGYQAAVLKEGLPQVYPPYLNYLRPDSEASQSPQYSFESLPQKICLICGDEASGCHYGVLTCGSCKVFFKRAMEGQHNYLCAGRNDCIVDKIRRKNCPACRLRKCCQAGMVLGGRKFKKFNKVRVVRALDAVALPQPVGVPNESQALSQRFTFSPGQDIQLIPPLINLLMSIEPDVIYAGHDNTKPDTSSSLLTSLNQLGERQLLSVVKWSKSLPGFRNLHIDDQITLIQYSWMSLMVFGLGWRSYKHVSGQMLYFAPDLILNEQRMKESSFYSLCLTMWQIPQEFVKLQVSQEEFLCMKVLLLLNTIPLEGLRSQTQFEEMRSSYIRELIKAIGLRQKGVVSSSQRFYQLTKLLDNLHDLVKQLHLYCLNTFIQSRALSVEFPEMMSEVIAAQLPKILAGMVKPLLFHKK
Procedure: as §1

Compound | IC50 (PR-A) [nM] | Emax (PR-A) [%] | IC50 (PR-B) [nM] | IC50 (PR-B; antagonistic activity on PR-B, read-out: IC50) [nM]
N#Cc1ccc(NC(=O)C(O)(Cc2cccc(-c3cccc(C(N)=O)c3)c2)C2CCN(S(=O)(=O)c3ccc(F)cc3)CC2)cc1C(F)(F)F (single isomer, unassigned) [Example 172, 3′-{2-(4-Cyano-3-trifluoromethyl-phenylcarbamoyl)-2-[1-(4-fluoro-benzenesulfonyl)piperidin-4-yl]-2-hydroxyethyl}biphenyl-3-carboxamide] | 1.2 | 101 |  | 
N#Cc1ccc(NC(=O)C(O)(Cc2ccccc2)C2CCCCC2)cc1Cl (racemic) [Example 3, rac-N-(3-Chloro-4-cyanophenyl)-2-hydroxy-2-cyclohexyl-3-phenylpropanamide] |  |  | 5.6 | 
CNS(=O)(=O)c1ccc(-c2cccc(C[C@](O)(C(=O)Nc3ccc(C#N)c(C(F)(F)F)c3)C3CCCCC3)c2)cc1 (stereo in doubt) [Example 63, N-(4-Cyano-3-trifluoromethylphenyl)-2-cyclohexyl-2-hydroxy-3-(4′-methyl-sulfamoylbiphenyl-3-yl)propionamide] | 26.3 | 104 |  | 
N#Cc1ccc(NC(=O)C(O)(Cc2ccccc2)C2CCCC2)cc1C(F)(F)F (racemic) [Example 39, rac-N-(4-Cyano-3-trifluoromethylphenyl)-2-cyclopentyl-2-hydroxy-3-phenyl-propionamide] |  |  |  | 17
CC(=O)c1ccc(-c2ccccc2CC(O)(C(=O)Nc2ccc(C#N)c(Cl)c2)C2CCCCC2)cc1 (single isomer, unassigned) [Example 19a, rac-3-(4′-Acetylbiphenyl-2-yl)-N-(3-chloro-4-cyanophenyl)-2-cyclohexyl-2-hydroxy-propionamide] | 6.26 | 108 |  | 
N#Cc1ccc(NC(=O)C(O)(C#Cc2ccc(O)cc2)C2CCCCC2)cc1Cl (racemic) [Example 10, rac-N-(3-Chloro-4-cyanophenyl)-2-hydroxy-2-cyclohexyl-2-(4-hydroxyphenyl)-ethynylacetamide] |  |  | 7 | 
N#Cc1ccc(NC(=O)C(O)(Cc2ccccc2)C2CCN(S(=O)(=O)c3cccc(Cl)c3)CC2)cc1C(F)(F)F (single isomer, unassigned) [Example 111, 2-[1-(3-Chlorobenzenesulfonyl)-piperidin-4-yl]-N-(4-cyano-3-trifluoro-methylphenyl)-2-hydroxy-3-phenyl-propionamide] | 4.17 | 103 |  | 
N#Cc1ccc(NC(=O)C(O)(Cc2ccccc2)C2CCN(C(=O)C3CC3)CC2)cc1C(F)(F)F (single isomer, unassigned) [Example 108, N-(4-Cyano-3-trifluoromethylphenyl)-2-(1-cyclopropanecarbonylpiperidin-4-yl)-2-hydroxy-3-phenylpropion amide] | 36.1 | 96 |  | 
N#Cc1ccc(NC(=O)C(O)(Cc2ccccc2)C2CCN(C(=O)c3ccccc3)CC2)cc1C(F)(F)F (single isomer, unassigned) [Example 101a, 2-(1-Benzoylpiperidin-4-yl)-N-(4-cyano-3-trifluoromethylphenyl)-2-hydroxy-3-phenylpropionamide] | 14.7 | 103 |  | 
CS(=O)(=O)N1CCN(Cc2cccc(CC(O)(C(=O)Nc3ccc(C#N)c(C(F)(F)F)c3)C3CCCCC3)c2)CC1 (stereo not drawn) [Example 84, N-(4-Cyano-3-trifluoromethylphenyl)-2-cyclohexyl-2-hydroxy-3-[3-(4-methane-sulfonylpiperazin-1-ylmethyl)phenyl]-propionamide] | 51.2 | 102 |  | 
N#Cc1ccc(NC(=O)C(O)(Cc2cccc(O)c2)C2CCCCC2)cc1C(F)(F)F (single isomer, unassigned) [Example 200b, N-(4-Cyano-3-trifluoromethylphenyl)-2-cyclohexyl-2-hydroxy-3-(3-hydroxy-phenyl)propionamide] | 5.66 | 98.5 |  | 
N#Cc1ccc(NC(=O)C(O)(Cc2ccccc2)C2CCN(C(=O)c3ccno3)CC2)cc1C(F)(F)F (single isomer, unassigned) [Example 113, N-(4-Cyano-3-trifluoromethylphenyl)-2-hydroxy-2-[1-(isoxazole-5-carbonyl)piperidin-4-yl]-3-phenyl-propionamide] | 21.7 | 97.9 |  | 
CNC(=O)c1cccc(-c2cccc(CC(O)(C(=O)Nc3ccc(C#N)c(C(F)(F)F)c3)C3CCN(S(=O)(=O)c4cccc(F)c4)CC3)c2)c1 (stereo not drawn) [Example 169, N-Methyl-3′-{2-(4-cyano-3-trifluoro-methylphenylcarbamoyl)-2-[1-(3-fluoro-benzenesulfonyl)-piperidin-4-yl]-2-hydroxyethyl}biphenyl-3-carboxamide] | 1.7 | 103 |  | 
CS(=O)(=O)N1CCC(C(O)(Cc2ccccc2)C(=O)Nc2ccc(C#N)c(C(F)(F)F)c2)CC1 (single isomer, unassigned) [Example 103, N-(4-Cyano-3-trifluoromethylphenyl)-2-hydroxy-2-(1-methanesulfonyl-piperidin-4-yl)-3-phenylpropionamide] | 48.8 | 98.5 |  | 
CNC(=O)c1cccc(-c2cccc(CC(O)(C(=O)Nc3ccc(C#N)c(C(F)(F)F)c3)C3CCN(C(=O)c4ccccc4)CC3)c2)c1 (single isomer, unassigned) [Example 159, N-Methyl-3′-[2-(1-benzoylpiperidin-4-yl)-2-(4-cyano-3-trifluoromethylphenyl-carbamoyl)-2-hydroxyethyl]biphenyl-3-carboxamide] | 15.9 | 96.2 |  | 
N#Cc1ccc(NC(=O)C(O)(Cc2cccc(-c3cccc(C(=O)N4CCOCC4)c3)c2)C2CCN(C(=O)c3ccccc3)CC2)cc1C(F)(F)F (stereo not drawn) [Example 162, 2-(1-Benzoylpiperidin-4-yl)-N-(4-cyano-3-trifluoromethylphenyl)-2-hydroxy-3-[3′-(morpholine-4-carbonyl)-biphenyl-3-yl]propionamide] | 44.1 | 99 |  | 
N#Cc1ccc(NC(=O)C(O)(Cc2cccc(-c3ccsc3)c2)C2CCCCC2)cc1C(F)(F)F (stereo not drawn) [Example 59, N-(4-Cyano-3-trifluoromethylphenyl)-2-cyclohexyl-2-hydroxy-3-(3-thiophen-3-ylphenyl)propionamide] | 46.8 | 103 |  | 
N#Cc1ccc(NC(=O)C(O)(Cc2cccc(-c3ccc(C(=O)CO)cc3)c2)C2CCCCC2)cc1C(F)(F)F (stereo not drawn) [Example 78, N-(4-Cyano-3-trifluoromethylphenyl)-2-cyclohexyl-2-hydroxy-3-[4′-(2-hydroxy-acetyl)biphenyl-3-yl]propionamide] | 55.7 | 101 |  | 
Cn1c(C#N)ccc1NC(=O)C(O)(Cc1ccccc1)C1CCCCC1 (stereo not drawn) [Example 97, N-(5-Cyano-1-methyl-1H-pyrrol-2-yl)-2-cyclohexyl-2-hydroxy-3-phenyl-propionamide] | 55.6 | 105 |  | 
CNC(=O)c1cccc(-c2cccc(CC(O)(C(=O)Nc3ccc(C#N)c(C(F)(F)F)c3)C3CCCCC3)c2)c1 (stereo not drawn) [Example 68, N-Methyl-3′-[2-(4-cyano-3-trifluoro-methylphenylcarbamoyl)-2-cyclohexyl-2-hydroxyethyl]biphenyl-3-carboxamide] | 5.13 | 102 |  | 
CC(=O)Nc1cccc(-c2cccc(CC(O)(C(=O)Nc3ccc(C#N)c(C(F)(F)F)c3)C3CCCCC3)c2)c1 (stereo not drawn) [Example 71, 3-(3′-Acetylaminobiphenyl-3-yl)-N-(4-cyano-3-trifluoromethylphenyl)-2-cyclohexyl-2-hydroxypropionamide] | 17.3 | 100 |  | 
